Results reported in US9606132B2, “Methods of monitoring adherence to lurasidone therapy” (Ameritox, Ltd., priority 2013, dated 2017).
Values joined by “and” are separate entries in the source; they are usually repeats but may differ in a detail not shown here. Equal values may be shown once.

How the values were obtained:
[1] = Quantitative urine testing of patients prescribed Latuda for compliance over 5 days (Examples 2-7)
Experimental: The urine of 20 patients who were prescribed 20 mg of Latuda® (lurasidone) was tested for compliance over 5 days (Table 3).
Samples that were deemed invalid based on pH and/or specific gravity (n=7) were not included in calculations. Any drug/metabolite concentration that was less than the LOD/LOQ (5 ng/mL) as noted in Table 3 was also excluded from the calculations.
The urine of 12 patients who were prescribed 40 mg of Latuda® (lurasidone) was tested for compliance over 5 days (Table 5).
Samples that were deemed invalid based on pH and/or specific gravity (n=3) were not included in calculations. Any drug/metabolite concentration that was less than the LOD/LOQ (5 ng/mL) as noted in Table 5 was also excluded from the calculations.
The urine of 2 patients who was prescribed 60 mg of Latuda® (lurasidone) was tested for compliance over 5 days (Table 7).
The urine of 15 patients who were prescribed 80 mg of Latuda® (lurasidone) was tested for compliance over 5 days (Table 9).
Any drug/metabolite concentration that was less than the LOD/LOQ (5 ng/mL) as noted in Table 5 was also excluded from the calculations.
The urine of 1 patient who was prescribed 100 mg of Latuda® (lurasidone) was tested for compliance over 5 days (Table 11).
The urine of 6 patients who were prescribed 120 mg of Latuda® (lurasidone) was tested for compliance over 5 days (Table 13).
Samples that were deemed invalid based on pH and/or specific gravity (n=2) were not included in calculations.

CYP3A4 = target: T1, CYP3A4 (Homo sapiens, UniProt P08684); details: liver; cited from earlier work
T1 construct: host or cells: liver (in vivo metabolism, general statement)

[2] = cited from earlier work
[3] = cited from earlier work; remark: listed apart in the source
[4] = cited from earlier work; remark: listed apart in the source
[5] = Qualitative identification of lurasidone and metabolites in urine by Q-ToF MS/MS (Example 1); details: chronic lurasidone doses; for Lurasidone Metabolite Distribution in Human Urine (qualitative identification): individual subjects
Experimental: Urine samples of normally metabolizing human subjects who were known to be taking chronic doses of lurasidone were tested for the presence of lurasidone and eleven metabolites (excluding isomeric metabolites). Each patient sample was analyzed twice to ensure accuracy. Due to the high probability for false identification of isobars, MS/MS data was collected and selectively looked at to add confidence to the identification.

[6] = 20 mg/day, n 53 valid samples, values below LOD/LOQ excluded
[7] = 40 mg/day, n 33 valid samples, values below LOD/LOQ excluded
[8] = 80 mg/day, n 45, values below LOD/LOQ excluded

T1 sequence (P08684 whole entry): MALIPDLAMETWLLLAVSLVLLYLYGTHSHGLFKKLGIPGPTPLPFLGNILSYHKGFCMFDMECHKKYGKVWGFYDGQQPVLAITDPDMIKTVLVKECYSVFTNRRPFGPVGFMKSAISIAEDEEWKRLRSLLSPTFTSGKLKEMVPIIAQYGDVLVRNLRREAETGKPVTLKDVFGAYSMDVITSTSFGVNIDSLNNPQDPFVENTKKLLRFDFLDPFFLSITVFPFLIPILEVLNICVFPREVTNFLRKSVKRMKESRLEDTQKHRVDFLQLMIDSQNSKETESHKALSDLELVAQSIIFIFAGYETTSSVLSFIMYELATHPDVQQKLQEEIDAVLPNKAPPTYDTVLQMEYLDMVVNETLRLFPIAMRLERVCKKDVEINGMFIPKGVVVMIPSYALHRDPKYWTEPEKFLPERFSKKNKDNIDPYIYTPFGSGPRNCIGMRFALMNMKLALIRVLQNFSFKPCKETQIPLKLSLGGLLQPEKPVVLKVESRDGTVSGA

urine concentration, Maximum Value ([1]; 20 mg/day, n 53 valid samples): 149.00 ng/mL
urine concentration, Median Value ([1]; 20 mg/day, n 53 valid samples): 12.45 ng/mL
urine concentration, Average [1, 6]: 18.38 ng/mL
urine concentration, Minimum Value [1, 6]: 5.70 ng/mL
urine concentration, Maximum Value ([1]; 40 mg/day, n 33 valid samples): 192.10 ng/mL
urine concentration, Median Value ([1]; 40 mg/day, n 33 valid samples): 33.10 ng/mL
urine concentration, Average [1, 7]: 44.23 ng/mL
urine concentration, Minimum Value [1, 7]: 7.20 ng/mL
urine concentration ([1]; 60 mg/day Latuda, Day 1, individual subjects): 16.3 ng/mL
urine concentration ([1]; 60 mg/day Latuda, Day 4, individual subjects): 25.3 ng/mL and 36.8 ng/mL
urine concentration ([1]; 60 mg/day Latuda, Day 5, individual subjects): 50.5 ng/mL
urine concentration, Average ([1]; 60 mg/day, n 6): 30.30 ng/mL
urine concentration, Maximum Value ([1]; 60 mg/day, n 6): 50.50 ng/mL
urine concentration, Median Value ([1]; 60 mg/day, n 6): 31.05 ng/mL
urine concentration, Minimum Value ([1]; 60 mg/day, n 6): 15.60 ng/mL
urine concentration, Maximum Value ([1]; 80 mg/day, n 45): 556.60 ng/mL
urine concentration, Median Value ([1]; 80 mg/day, n 45): 70.00 ng/mL
urine concentration, Average [1, 8]: 120.26 ng/mL
urine concentration, Minimum Value [1, 8]: 10.10 ng/mL
urine concentration, Average ([1]; 100 mg/day, n 3): 73.97 ng/mL
urine concentration, Maximum Value ([1]; 100 mg/day, n 3): 94.90 ng/mL
urine concentration, Median Value ([1]; 100 mg/day, n 3): 64.50 ng/mL
urine concentration, Minimum Value ([1]; 100 mg/day, n 3): 62.50 ng/mL
urine concentration, Average ([1]; 120 mg/day, n 16 valid samples): 95.42 ng/mL
urine concentration, Maximum Value ([1]; 120 mg/day, n 16 valid samples): 260.10 ng/mL
urine concentration, Median Value ([1]; 120 mg/day, n 16 valid samples): 73.60 ng/mL
urine concentration, Minimum Value ([1]; 120 mg/day, n 16 valid samples): 12.40 ng/mL
concentration in urine ([1]; patient prescribed 80 mg/day Latuda, subject II, day 1): 147.1 ng/mL
concentration in urine ([1]; patient prescribed 80 mg/day Latuda, subject II, day 4): 144.8 ng/mL
concentration in urine ([1]; patient prescribed 80 mg/day Latuda, subject II, day 5): 112.7 ng/mL
concentration in urine ([1]; patient prescribed 80 mg/day Latuda, subject eleven, day 1): 556.6 ng/mL
concentration in urine ([1]; patient prescribed 80 mg/day Latuda, subject eleven, day 4): 503.8 ng/mL
concentration in urine ([1]; patient prescribed 80 mg/day Latuda, subject eleven, day 5): 264.0 ng/mL
concentration in urine ([1]; patient prescribed 80 mg/day Latuda, subject fifteen, day 1): 138.5 ng/mL
concentration in urine ([1]; patient prescribed 80 mg/day Latuda, subject fifteen, day 4): 83.8 ng/mL
concentration in urine ([1]; patient prescribed 80 mg/day Latuda, subject fifteen, day 5): 67.6 ng/mL
concentration in urine ([1]; patient prescribed 80 mg/day Latuda, subject five, day 1): 57.3 ng/mL
concentration in urine ([1]; patient prescribed 80 mg/day Latuda, subject five, day 4): 69.6 ng/mL
concentration in urine ([1]; patient prescribed 80 mg/day Latuda, subject five, day 5): 100.6 ng/mL
concentration in urine ([1]; patient prescribed 80 mg/day Latuda, subject four, day 1): 175.2 ng/mL
concentration in urine ([1]; patient prescribed 80 mg/day Latuda, subject four, day 4): 96.4 ng/mL
concentration in urine ([1]; patient prescribed 80 mg/day Latuda, subject four, day 5): 116.3 ng/mL
concentration in urine ([1]; patient prescribed 80 mg/day Latuda, subject nine, day 1): 52.6 ng/mL
concentration in urine ([1]; patient prescribed 80 mg/day Latuda, subject nine, day 4): 43.7 ng/mL
concentration in urine ([1]; patient prescribed 80 mg/day Latuda, subject nine, day 5): 38.9 ng/mL
concentration in urine ([1]; patient prescribed 80 mg/day Latuda, subject nineteen, day 1): 210.7 ng/mL
concentration in urine ([1]; patient prescribed 80 mg/day Latuda, subject nineteen, day 4): 70.4 ng/mL
concentration in urine ([1]; patient prescribed 80 mg/day Latuda, subject nineteen, day 5): 16.1 ng/mL
concentration in urine ([1]; patient prescribed 80 mg/day Latuda, subject one, day 1, values marked ** below LOD/LOQ of 5 ng/mL = negative result, * ion ratio criteria not met): 4.8** ng/mL
concentration in urine ([1]; patient prescribed 80 mg/day Latuda, subject one, day 4): 52.0 ng/mL
concentration in urine ([1]; patient prescribed 80 mg/day Latuda, subject one, day 5): 22.9 ng/mL
concentration in urine ([1]; patient prescribed 80 mg/day Latuda, subject seventeen, day 1): 152.8 ng/mL
concentration in urine ([1]; patient prescribed 80 mg/day Latuda, subject seventeen, day 4): 83.3 ng/mL
concentration in urine ([1]; patient prescribed 80 mg/day Latuda, subject seventeen, day 5): 72.4 ng/mL
concentration in urine ([1]; patient prescribed 80 mg/day Latuda, subject sixteen, day 1): 10.1 ng/mL
concentration in urine ([1]; patient prescribed 80 mg/day Latuda, subject sixteen, day 4): 14.5 ng/mL
concentration in urine ([1]; patient prescribed 80 mg/day Latuda, subject sixteen, day 5): 41.0 ng/mL
concentration in urine ([1]; patient prescribed 80 mg/day Latuda, subject ten, day 1): 40.5 ng/mL
concentration in urine ([1]; patient prescribed 80 mg/day Latuda, subject ten, day 4): 162.5 ng/mL
concentration in urine ([1]; patient prescribed 80 mg/day Latuda, subject ten, day 5): 48.3 ng/mL
concentration in urine ([1]; patient prescribed 80 mg/day Latuda, subject thirteen, day 1): 145.2 ng/mL
concentration in urine ([1]; patient prescribed 80 mg/day Latuda, subject thirteen, day 4): 298.3 ng/mL
concentration in urine ([1]; patient prescribed 80 mg/day Latuda, subject thirteen, day 5): 539.5 ng/mL
concentration in urine ([1]; patient prescribed 80 mg/day Latuda, subject three, day 1): 59.5 ng/mL
concentration in urine ([1]; patient prescribed 80 mg/day Latuda, subject three, day 4): 35.9 ng/mL
concentration in urine ([1]; patient prescribed 80 mg/day Latuda, subject three, day 5): 69.5 ng/mL
concentration in urine ([1]; patient prescribed 80 mg/day Latuda, subject twelve, day 1, values marked ** below LOD/LOQ of 5 ng/mL = negative result): 0.0** ng/mL
concentration in urine ([1]; patient prescribed 80 mg/day Latuda, subject twelve, day 4): 32.9 ng/mL
concentration in urine ([1]; patient prescribed 80 mg/day Latuda, subject twelve, day 5): 43.5 ng/mL
concentration in urine ([1]; patient prescribed 80 mg/day Latuda, subject two, day 1): 23.0 ng/mL
concentration in urine ([1]; patient prescribed 80 mg/day Latuda, subject two, day 4, values marked ** below LOD/LOQ of 5 ng/mL = negative result): 0.1** ng/mL
concentration in urine ([1]; patient prescribed 80 mg/day Latuda, subject two, day 5): 36.7 ng/mL
concentration in urine ([1]; patient prescribed 120 mg/day Latuda, subject eight, day 1): 148.7 ng/mL
concentration in urine ([1]; patient prescribed 120 mg/day Latuda, subject eight, day 4): 260.1 ng/mL
concentration in urine ([1]; patient prescribed 120 mg/day Latuda, subject eight, day 5, specimen validity (creatinine, specific gravity) not acceptable): 57.2 ng/mL
concentration in urine ([1]; patient prescribed 120 mg/day Latuda, subject eighteen, day 1): 23.4 ng/mL
concentration in urine ([1]; patient prescribed 120 mg/day Latuda, subject eighteen, day 4): 27.5 ng/mL
concentration in urine ([1]; patient prescribed 120 mg/day Latuda, subject eighteen, day 5): 12.4 ng/mL
concentration in urine ([1]; patient prescribed 120 mg/day Latuda, subject fourteen, day 1): 102.7 ng/mL
concentration in urine ([1]; patient prescribed 120 mg/day Latuda, subject fourteen, day 4): 87.3 ng/mL
concentration in urine ([1]; patient prescribed 120 mg/day Latuda, subject fourteen, day 5): 59.1 ng/mL
concentration in urine ([1]; patient prescribed 120 mg/day Latuda, subject seven, day 1): 83.9 ng/mL
concentration in urine ([1]; patient prescribed 120 mg/day Latuda, subject seven, day 4): 46.4 ng/mL
concentration in urine ([1]; patient prescribed 120 mg/day Latuda, subject seven, day 5): 63.3 ng/mL
concentration in urine ([1]; patient prescribed 120 mg/day Latuda, subject six, day 1, specimen validity (creatinine) not acceptable): 21.7 ng/mL
concentration in urine ([1]; patient prescribed 120 mg/day Latuda, subject six, day 4, specimen validity (specific gravity) not acceptable): 23.7 ng/mL
concentration in urine ([1]; patient prescribed 120 mg/day Latuda, subject six, day 5): 61.6 ng/mL
concentration in urine ([1]; patient prescribed 120 mg/day Latuda, subject twenty, day 1): 126.2 ng/mL
concentration in urine ([1]; patient prescribed 120 mg/day Latuda, subject twenty, day 4): 150.7 ng/mL
concentration in urine ([1]; patient prescribed 120 mg/day Latuda, subject twenty, day 5): 251.7 ng/mL
detectability in human urine (Example 1) [5]: detected in the majority of the samples
Lurasidone Metabolite Distribution in Human Urine (qualitative identification) ([5]; Run 1): ✓* (5×) and ✓^ (4×)
Lurasidone Metabolite Distribution in Human Urine (qualitative identification) ([5]; Run 2): ✓^ (4×) and ✓* (5×)
Substance: Lurasidone
urine concentration ([1]; 20 mg/day Latuda, Day 1, individual subjects, ** = below LOD/LOQ 5 ng/mL (negative)): 9.7 ng/mL and 12.7 ng/mL and 9.0 ng/mL and 33.1 ng/mL and 24.6 ng/mL and 6.9 ng/mL and 6.0 ng/mL and 4.4* ** ng/mL and 9.1 ng/mL (2×) and 10.1 ng/mL and 5.7 ng/mL and 7.8 ng/mL and 12.9 ng/mL and 25.8 ng/mL and 13.8 ng/mL and 3.2** ng/mL and 83.1 ng/mL and 33.4 ng/mL and 12.0 ng/mL
urine concentration ([1]; 20 mg/day Latuda, Day 4, individual subjects, ** = below LOD/LOQ 5 ng/mL (negative)): 149.0 ng/mL and 14.3 ng/mL and 18.9 ng/mL and 4.8** ng/mL and 14.0 ng/mL and 5.7 ng/mL and 4.7* ** ng/mL and 7.0 ng/mL (2×) and 2.9* ** ng/mL and 31.3 ng/mL and 13.0 ng/mL and 7.3 ng/mL and 24.3 ng/mL and 4.3** ng/mL and 12.5 ng/mL and 17.5 ng/mL and 5.8 ng/mL and 29.1 ng/mL and 8.0 ng/mL
urine concentration ([1]; 20 mg/day Latuda, Day 5, individual subjects, ** = below LOD/LOQ 5 ng/mL (negative)): 9.6 ng/mL and 8.8 ng/mL and 13.2 ng/mL and 24.4 ng/mL and 26.2 ng/mL and 20.3 ng/mL and 6.5 ng/mL and 6.6 ng/mL and 6.0 ng/mL and 18.6 ng/mL and 12.1 ng/mL and 13.6 ng/mL and 5.4 ng/mL and 10.2 ng/mL and 11.0 ng/mL and 12.4 ng/mL and 5.2 ng/mL and 4.7** ng/mL and 23.2 ng/mL and 10.4 ng/mL
urine concentration ([1]; 40 mg/day Latuda, Day 1, individual subjects, ** = below LOD/LOQ 5 ng/mL (negative)): 30.5 ng/mL and 31.9 ng/mL and 63.9 ng/mL and 25.8 ng/mL and 4.4** ng/mL and 30.6 ng/mL and 9.8 ng/mL and 112.1 ng/mL and 14.0 ng/mL and 11.8 ng/mL and 129.1 ng/mL and 77.1 ng/mL
urine concentration ([1]; 40 mg/day Latuda, Day 4, individual subjects, ** = below LOD/LOQ 5 ng/mL (negative)): 21.7 ng/mL and 25.6 ng/mL and 70.7 ng/mL and 69.3 ng/mL and 26.4 ng/mL and 1.0** ng/mL and 41.3 ng/mL and 14.5 ng/mL and 54.0 ng/mL and 32.8 ng/mL and 12.8 ng/mL and 38.0 ng/mL
urine concentration ([1]; 40 mg/day Latuda, Day 5, individual subjects, ** = below LOD/LOQ 5 ng/mL (negative)): 37.9 ng/mL (2×) and 60.0 ng/mL and 33.4 ng/mL and 40.1 ng/mL and 1.3** ng/mL and 35.8 ng/mL and 7.2 ng/mL and 192.1 ng/mL and 11.3 ng/mL and 7.8 ng/mL and 56.4 ng/mL
metabolizing enzyme (CYP3A4): metabolized in the liver primarily by CYP3A4
log P [2]: 5.9
pKa [2]: 7.6
excreted in the feces ([3]; excretion studies in humans): 80%
recovered in the urine ([3]; excretion studies in humans): 9%
share of total radioactivity in plasma ([3]; plasma, post oral dosing): 12%
time to steady state serum concentrations ([4]; days of dosing): 7 days
mean elimination half-life ([4]; in vivo): 18 h
